Measurements from US6107313A, “Dopamine receptor antagonists” (CombiChem, Inc., priority 1998, dated 2000).

How the values were obtained:
[1] = biological target: T1, Dopamine, D2s (Human Recombinant) (Homo sapiens, UniProt P14416); experiment: dopamine D2 receptor binding assay, [3H]spiperone, human recombinant (A9L cells); conditions: 1 h, N = 2, read-out: % Specific Binding; for activity at 10 µM: concentration 1.0E-5, average; for activity at 1 µM: concentration 1.0E-6, average; for activity at 0.1 µM: concentration 1.0E-7, average; for activity at 0.01 µM: concentration 1.0E-8, average; for activity at 0.001 µM: concentration 1.0E-9, average; for activity at 3 µM: concentration 3.0E-6, average; for activity at 0.3 µM: concentration 3.0E-7, average; for activity at 0.03 µM: concentration 3.0E-8, average; for activity at 0.003 µM: concentration 3.0E-9, average; for activity at 0.0003 µM: concentration 3.0E-10, average
T1 construct: expressed in transfected cells; host or cells: A9L cells (membranes)
Description: (§1) Following incubation, the membranes were rapidly filtered under vacuum through GF/B glass fiber filters (Packard). The filters were then washed several times with an ice-cold buffer using a Packard cell harvester.
(§2) Bound radioactivity was measured with a scintillation counter (Topcount, Packard) using a liquid scintillation cocktail (Microscint 0, Packard).
(§3) The compounds were tested in each assay at ten concentrations in duplicate to obtain competition curves.
(§4) In each experiment, the respective reference compound was simultaneously tested at eight concentrations in duplicate to obtain competition curves in order to validate this experiment.
(§5) The specific radioligand binding to the receptors is defined as the difference between total binding and nonspecific binding determined in the presence of an excess of unlabelled ligand (see section 2.1).
(§6) Results are expressed as a percent of control specific binding obtained in the presence of the test compounds.
(§7) These parameters were obtained by Hill equation curve fitting. The inhibition constants (Ki) were calculated from the Cheng Prusoff equation (Ki =IC50 /(1+L/KD), where L=concentration of radioligand in the assay, and KD=affinity of radioligand for the receptor).
(§8) Reactions were carried out in 50 mM TRIS-HCl (pH 7.4) containing 120 mM NaCl, 5 mM KCl, 5 mM MgCl2, 1mM EDTA for 60 minutes at 25 ° C. The reaction was terminated by rapid vacuum filtration onto glass fiber filters. Radioactivity trapped onto the filters was determined and compared to control values in order to ascertain any interactions of test compound(s) with the cloned dopamine D2 short binding site.

[2] = biological target: T2, Dopamine, D4.4 (Human Recombinant) (Homo sapiens, UniProt P21917); experiment: dopamine D4.4 receptor binding assay, [3H]spiperone, human recombinant (CHO cells); conditions: 1 h, N = 2, read-out: % Specific Binding; for activity at 10 µM: concentration 1.0E-5, average; for activity at 1 µM: concentration 1.0E-6, average; for activity at 0.1 µM: concentration 1.0E-7, average; for activity at 0.01 µM: concentration 1.0E-8, average; for activity at 0.001 µM: concentration 1.0E-9, average; for activity at 3 µM: concentration 3.0E-6, average; for activity at 0.3 µM: concentration 3.0E-7, average; for activity at 0.03 µM: concentration 3.0E-8, average; for activity at 0.003 µM: concentration 3.0E-9, average; for activity at 0.0003 µM: concentration 3.0E-10, average
T2 construct: expressed in transfected cells; host or cells: CHO cells (membranes)
T2 sequence (P21917 1-419): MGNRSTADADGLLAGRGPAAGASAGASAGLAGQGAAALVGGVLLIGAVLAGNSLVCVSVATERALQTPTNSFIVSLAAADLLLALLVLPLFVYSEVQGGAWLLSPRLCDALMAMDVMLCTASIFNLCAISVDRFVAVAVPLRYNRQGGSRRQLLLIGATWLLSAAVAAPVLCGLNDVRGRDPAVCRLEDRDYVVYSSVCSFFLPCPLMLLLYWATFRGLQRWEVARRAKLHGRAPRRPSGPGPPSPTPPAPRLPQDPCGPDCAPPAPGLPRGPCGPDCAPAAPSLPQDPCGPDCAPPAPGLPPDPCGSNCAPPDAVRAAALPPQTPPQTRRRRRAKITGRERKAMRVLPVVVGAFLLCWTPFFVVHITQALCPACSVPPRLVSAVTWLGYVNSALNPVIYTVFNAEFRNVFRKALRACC
Description: [The source words this procedure for another target and reports this target under the same test.] as §1, §2, §3, §4, §5, §6, §7, §8

T1 sequence (P14416 1-414 isoform P14416-2): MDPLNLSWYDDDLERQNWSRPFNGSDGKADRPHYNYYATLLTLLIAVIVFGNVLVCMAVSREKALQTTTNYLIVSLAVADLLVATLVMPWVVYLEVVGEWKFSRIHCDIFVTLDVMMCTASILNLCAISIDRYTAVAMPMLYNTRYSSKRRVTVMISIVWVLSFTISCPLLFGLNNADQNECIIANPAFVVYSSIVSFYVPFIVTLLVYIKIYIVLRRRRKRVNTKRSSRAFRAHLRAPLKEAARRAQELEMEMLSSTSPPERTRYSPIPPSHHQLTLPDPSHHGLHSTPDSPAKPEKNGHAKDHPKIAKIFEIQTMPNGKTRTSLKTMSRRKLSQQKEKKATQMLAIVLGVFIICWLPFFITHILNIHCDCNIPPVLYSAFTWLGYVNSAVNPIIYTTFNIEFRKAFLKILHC

SMILES | activity at 10 µM [1] | activity at 1 µM [1] | activity at 0.1 µM [1] | activity at 0.01 µM [1] | activity at 0.001 µM [1] | activity at 3 µM [1] | activity at 0.3 µM [1] | activity at 0.03 µM [1] | activity at 0.003 µM [1] | activity at 0.0003 µM [1] | activity at 10 µM [2] | activity at 1 µM [2] | activity at 0.1 µM [2] | activity at 0.01 µM [2] | activity at 0.001 µM [2] | activity at 3 µM [2] | activity at 0.3 µM [2] | activity at 0.03 µM [2] | activity at 0.003 µM [2] | activity at 0.0003 µM [2]
Cc1ccc(-c2noc(C3CCN(Cc4ccc(Cl)c(Cl)c4)CC3)n2)cc1 [Compound 5a, 4-(3-p-tolyl-1,2,4-oxadiazol-5-yl)-N-(3,4-dichlorobenzyl) piperidine] | 116% | 102% | 84.7% | 89.7% | 93.4% | 99.4% | 101% | 107% | 90.8% | 89.9% | 3.57% | 46.6% | 76.8% | 81% | 80.2% | 16.4% | 80.4% | 76.3% | 84.4% | 90.9%
Clc1cccc(CN2CCC(c3nc(-c4cccs4)no3)CC2)c1 [Compound 5c, 4-[3-(2-thienyl)-1,2,4-oxadiazol-5-yl]-N-(3-chlorobenzyl) piperidine] | 33% | 101% | 87.7% | 88.3% | 94.8% | 102% | 94.6% | 84.9% | 108% | 98.5% | -7.32% | 1.74% | 29.2% | 81.9% | 107% | 4.6% | 4.79% | 60% | 95.2% | 109%
Clc1ccc(CN2CCC(c3nc(-c4cccs4)no3)CC2)cc1 [Compound 5b, 4-[3-(2-thienyl)-1,2,4-oxadiazol-5-yl]-N-(4-chlorobenzyl) piperidine] | 24.6% | 91.3% | 112% | 103% | 104% | 61.9% | 116% | 104% | 97.3% | 116% | -3.8% | 0.44% | 22.8% | 53.6% | 76% | -0.19% | 4.28% | 29.7% | 73.1% | 82.3%
COc1ccc(CN2CCC(c3nc(-c4ccccc4C)no3)CC2)cc1 [Compound 5d, 4-(3-o-tolyl-1,2,4-oxadiazol-5-yl)-N-(4-methoxybenzyl) piperidine] | 39.5% | 106% | 105% | 100% | 104% | 113% | 117% | 99.8% | 105% | 85.2% | 2.15% | 6.58% | 47.5% | 92.1% | 102% | 12.2% | 22.9% | 77.1% | 96.4% | 101%
